One assay addresses Recombinant Cat D (Homo sapiens (Human), UniProt P07339). Nature of the assay: In vitro enzymatic Cathepsin D (Cat D) FRET assay. The assay is classed as biochemical. The conditions noted are these: read-out: IC50 IP (μM) CatD. The procedure, abridged:
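Recombinant Cat D expressed in CHO cells, assayed in 0.05 M citrate pH 3.5 with 5 mM CHAPS and 10% DMSO final. Reaction started with 20 nM FRET peptide substrate, incubated one hour, then stopped by Tris buffer to neutral pH; fluorescence read at ex 500/em 580 nm.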

The target in a further assay is human recombinant BACE2 (Homo sapiens (Human), UniProt Q9Y5Z0). Nature of the assay: In vitro enzymatic BACE2 FRET assay. In kind it is biochemical. Particulars: read-out: IC50 IP (μM) BACE2 enzyme. The procedure, abridged:
(§1)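 Ni-NTA-purified recombinant protease incubated with compound; reaction started with 50 nM FRET peptide substrate (fluorophore/quencher flanking the BACE cleavage site) and run 1 h. Stopped with Tris buffer raising pH to neutral; fluorescence read at ex 488/em 590 nm.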

For a further assay, the target named is human recombinant BACE1 (Homo sapiens (Human), UniProt P56817). The experiment in a line: In vitro enzymatic BACE1 FRET assay. The assay is classed as biochemical. Particulars: read-out: IC50 IP (μM) BACE1 enzyme. In outline: as §1
human recombinant BACE1, sequence (P56817 46-501): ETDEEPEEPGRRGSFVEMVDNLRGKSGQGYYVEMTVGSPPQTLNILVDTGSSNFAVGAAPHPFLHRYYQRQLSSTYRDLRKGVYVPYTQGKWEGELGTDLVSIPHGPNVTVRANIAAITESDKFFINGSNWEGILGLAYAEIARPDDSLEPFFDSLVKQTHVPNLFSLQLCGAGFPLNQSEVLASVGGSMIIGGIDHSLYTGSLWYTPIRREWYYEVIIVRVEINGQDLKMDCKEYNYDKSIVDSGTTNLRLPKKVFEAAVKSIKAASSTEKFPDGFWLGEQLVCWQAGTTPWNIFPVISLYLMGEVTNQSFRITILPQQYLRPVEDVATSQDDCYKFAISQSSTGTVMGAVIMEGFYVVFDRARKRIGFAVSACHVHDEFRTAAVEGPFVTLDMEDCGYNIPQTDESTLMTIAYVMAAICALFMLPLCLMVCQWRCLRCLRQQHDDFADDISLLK
Assay [1] relates to Aβ40 in conditioned medium of cells stably expressing Amyloid Precursor Protein (APP). The experiment in a line: In vitro BACE-1 cell-based assay (Aβ40 sandwich ELISA). The conditions noted are these: read-out: IC50 IP (μM) BACE1 cell. In outline:
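APP-expressing cells treated 24 h at 37 °C with compound in 10-point dose response (top 100 μM or 10 μM, 0.1% DMSO final). Secreted Aβ40 in conditioned medium quantified by sandwich ELISA (pAb40 capture, biotinylated 6E10 detection, time-resolved europium fluorescence); IC50 from percent inhibition versus concentration.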
(In general: In an ELISA, binding on a coated surface is turned into a signal by an enzyme label.)

Like-named read-outs stand apart in the source and are kept apart here.

Recombinant Cat D, sequence (P07339 65-412): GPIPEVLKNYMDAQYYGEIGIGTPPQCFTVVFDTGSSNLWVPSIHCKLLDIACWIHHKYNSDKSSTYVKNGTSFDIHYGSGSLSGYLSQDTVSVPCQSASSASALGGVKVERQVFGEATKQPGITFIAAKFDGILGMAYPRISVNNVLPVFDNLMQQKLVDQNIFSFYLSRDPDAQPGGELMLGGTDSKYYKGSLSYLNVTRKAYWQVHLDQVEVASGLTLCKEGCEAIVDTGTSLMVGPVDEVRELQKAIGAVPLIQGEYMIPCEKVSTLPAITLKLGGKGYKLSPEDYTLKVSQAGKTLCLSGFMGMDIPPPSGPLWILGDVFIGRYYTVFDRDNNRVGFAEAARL
human recombinant BACE2, sequence (Q9Y5Z0 63-518): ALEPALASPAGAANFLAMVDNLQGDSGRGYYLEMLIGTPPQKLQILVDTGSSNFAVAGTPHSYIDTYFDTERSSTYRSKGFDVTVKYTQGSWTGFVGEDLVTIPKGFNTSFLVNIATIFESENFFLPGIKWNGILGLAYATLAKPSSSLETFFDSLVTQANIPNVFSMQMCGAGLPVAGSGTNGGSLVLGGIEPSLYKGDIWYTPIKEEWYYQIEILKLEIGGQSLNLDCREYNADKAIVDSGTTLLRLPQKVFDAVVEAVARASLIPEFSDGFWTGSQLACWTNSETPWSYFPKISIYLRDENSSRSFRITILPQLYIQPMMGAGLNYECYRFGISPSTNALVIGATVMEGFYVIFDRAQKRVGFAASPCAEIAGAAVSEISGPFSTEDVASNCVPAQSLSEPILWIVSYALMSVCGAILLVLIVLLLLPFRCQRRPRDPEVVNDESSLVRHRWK

One may read the IC50 as the concentration that gives 50% inhibition. For `C[C@]1(c2cc(NC(=O)c3ccc(Cl)cn3)ccc2F)N=C(N)S[C@@]2(C(=O)NC3CC3)C[C@H]21` [Example 792, (1S,5S,6S)-3-amino-5-(5-(((5-chloro-2-pyridinyl)carbonyl)amino)-2-fluorophenyl)-N-cyclopropyl-5-methyl-2-thia-4-azabicyclo[4.1.0]hept-3-en-1-carboxamide], the IC50 was 134 µM at Recombinant Cat D, < 0.00203 µM at human recombinant BACE2, 0.00075 µM at human recombinant BACE1 and 0.000971 µM in assay [1].
In the case of `CNC(=O)[C@]12C[C@H]1[C@@](C)(c1cc(NC(=O)c3ncc(OCC(F)(F)F)cc3C)cc(F)c1F)N=C(N)S2` [Example 702, (1S,5S,6S)-3-amino-5-(2,3-difluoro-5-(((3-methyl-5-(2,2,2-trifluoroethoxy)-2-pyridinyl)carbonyl)amino)phenyl)-N,5-dimethyl-2-thia-4-azabicyclo[4.1.0]hept-3-ene-1-carboxamide], the IC50 amounted to 362 µM on Recombinant Cat D, 0.269 µM at human recombinant BACE2, 0.000986 µM at human recombinant BACE1 and 0.0344 µM in assay [1].
The like results for `C#CCOc1cnc(C(=O)Nc2ccc(F)c([C@@]3(C)N=C(N)S[C@@]4(C(=O)N5CCOCC5)C[C@H]43)c2)cn1` [Example 1005, N-(3-((1S,5S,6S)-3-amino-5-methyl-1-(morpholine-4-carbonyl)-2-thia-4-azabicyclo[4.1.0]hept-3-en-5-yl)-4-fluorophenyl)-5-(prop-2-yn-1-yloxy)pyrazine-2-carboxamide] were, in that order, 72.1 µM, 0.00516 µM, 0.000384 µM and 0.00108 µM.
The corresponding values for `C[C@]1(c2cc(NC(=O)c3ccc(Cl)cn3)ccc2F)N=C(N)S[C@]2(CO)[C@H]1C2(F)F` [Example 704, N-(3-((1S,5S,6R)-3-amino-7,7-difluoro-1-(hydroxymethyl)-5-methyl-2-thia-4-azabicyclo[4.1.0]hept-3-en-5-yl)-4-fluorophenyl)-5-chloro-2-pyridinecarboxamide] are 141 µM, < 0.00203 µM, 0.002 µM and 0.00557 µM.
Consider `C[C@]1(c2cc(Nc3ncnc4cc(C#N)cnc34)ccc2F)N=C(N)S[C@@H]2[C@H]1C2(F)F` [Example 101, 4-((3-((1R,5S,6R)-3-amino-7,7-difluoro-5-methyl-2-thia-4-azabicyclo[4.1.0]hept-3-en-5-yl)-4-fluorophenyl)amino)pyrido[3,2-d]pyrimidine-7-carbonitrile], for which the IC50 on Recombinant Cat D (Cathepsin D FRET enzyme assay) worked out at 720 µM; on human recombinant BACE2 (BACE2 FRET enzyme assay) it was 0.023 µM; on human recombinant BACE1 (BACE1 FRET enzyme assay), 0.0197 µM; in assay [1] (BACE1 cell-based assay) it was 0.094 µM.
The corresponding values for `COc1cnc2c(Nc3cc(F)c(F)c([C@@]4(C)N=C(N)S[C@@]5(CO)C[C@H]54)c3)ncc(F)c2c1` [Example 91, ((1S,5S,6S)-3-amino-5-(2,3-difluoro-5-((5-fluoro-3-methoxy-1,7-naphthyridin-8-yl)amino)phenyl)-5-methyl-2-thia-4-azabicyclo[4.1.0]hept-3-en-1-yl)methanol] are 1210 µM, 0.0111 µM, 0.00524 µM and 0.0256 µM.
In the case of `C#CCOc1cnc2c(Nc3cnc(OC)c([C@@]4(C)N=C(N)S[C@@]5(CF)C[C@H]54)c3)ncnc2c1` [Example 625, N-(5-((1S,5S,6S)-3-amino-1-(fluoromethyl)-5-methyl-2-thia-4-azabicyclo[4.1.0]hept-3-en-5-yl)-6-methoxy-3-pyridinyl)-7-(2-propyn-1-yloxy)pyrido[3,2-d]pyrimidin-4-amine], the IC50 stood at 730 µM at Recombinant Cat D, 0.401 µM on human recombinant BACE2, 0.0309 µM on human recombinant BACE1 and 0.014 µM in assay [1].
The like results for `COC[C@]12C[C@H]1[C@@](C)(c1cc(NC(=O)c3cnc(Cl)cn3)cc(F)c1F)N=C(N)S2` [Example 1007] were, in that order, 460 µM, 0.00484 µM, 0.00702 µM and 0.73 µM.
The like results for `C[C@]1(c2cc(Nc3ncnc4cc(OCc5ncco5)cnc34)cnc2F)N=C(N)S[C@@]2(CC#N)C[C@H]21` [Example 608, ((1R,5S,6S)-3-amino-5-(2-fluoro-5-((7-(1,3-oxazol-2-ylmethoxy)pyrido[3,2-d]pyrimidin-4-yl)amino)-3-pyridinyl)-5-methyl-2-thia-4-azabicyclo[4.1.0]hept-3-en-1-yl)acetonitrile] were, in that order, > 400 µM, 0.154 µM, 0.00285 µM and 0.00174 µM.
In the case of `C#CCOc1cnc(C(=O)Nc2cc(F)c(F)c([C@@]3(C)N=C(N)S[C@@]4(C(N)=O)C[C@H]43)c2)cn1` [Example 919, (1S,5S,6S)-3-amino-5-(2,3-difluoro-5-(((5-(2-propyn-1-yloxy)-2-pyrazinyl)carbonyl)amino)phenyl)-5-methyl-2-thia-4-azabicyclo[4.1.0]hept-3-ene-1-carboxamide], the IC50 at Recombinant Cat D was determined as 21.2 µM; on human recombinant BACE2, 0.00428 µM; on human recombinant BACE1, 0.000199 µM; in assay [1], 0.000298 µM.
The like results for `C#CCOc1cnc2c(Nc3ccc(F)c([C@@]4(CF)N=C(N)S[C@@]5(Cn6cc(C)nn6)C[C@H]54)c3)nccc2n1` [Example 724, N-(3-((1S,5S,6S)-3-amino-5-(fluoromethyl)-1-((4-methyl-1H-1,2,3-triazol-1-yl)methyl)-2-thia-4-azabicyclo[4.1.0]hept-3-en-5-yl)-4-fluorophenyl)-2-(2-propyn-1-yloxy)pyrido[3,4-b]pyrazin-5-amine] were, in that order, 1080 µM, 0.0746 µM, 0.00208 µM and 0.00712 µM.
With `C[C@]1(c2cc(NC(=O)c3ccc(Cl)cn3)cc(F)c2F)N=C(N)S[C@@H]2[C@H]1C2(F)F` [Example 748, N-(3-((1R,5S,6R)-3-amino-7,7-difluoro-5-methyl-2-thia-4-azabicyclo[4.1.0]hept-3-en-5-yl)-4,5-difluorophenyl)-5-chloro-2-pyridinecarboxamide], the IC50 on Recombinant Cat D was found to be 129 µM; at human recombinant BACE2, 0.00284 µM; on human recombinant BACE1, 0.00807 µM; in assay [1] it was 0.597 µM.
The like results for `COC[C@]12C[C@H]1[C@@](C)(c1cc(NC(=O)c3cnc(OCCF)cn3)cc(F)c1F)N=C(N)S2` [Example 1064, N-(3-((1S,5S,6S)-3-amino-1-(methoxymethyl)-5-methyl-2-thia-4-azabicyclo[4.1.0]hept-3-en-5-yl)-4,5-difluorophenyl)-5-(2-fluoroethoxy)-2-pyrazinecarboxamide] were, in that order, > 400 µM, 0.081 µM, 0.0027 µM and 0.0047 µM.
On to `C#CCOc1cnc(C(=O)Nc2ccc(F)c([C@@]3(C)N=C(N)S[C@@]4(COC)C[C@H]43)c2)c(C)c1` [Example 683, N-(3-((1S,5S,6S)-3-amino-1-(methoxymethyl)-5-methyl-2-thia-4-azabicyclo[4.1.0]hept-3-en-5-yl)-4-fluorophenyl)-3-methyl-5-(2-propyn-1-yloxy)-2-pyridinecarboxamide], for which the IC50 was found to be 2100 µM at Recombinant Cat D, 0.0267 µM on human recombinant BACE2, 0.00391 µM on human recombinant BACE1 and 0.008 µM in assay [1].
The corresponding values for `Cc1ncoc1[C@]12C[C@H]1[C@@](CF)(c1cc(NC(=O)c3ccc(Cl)cn3)ccc1F)N=C(N)S2` [Example 787, N-(3-((1S,5S,6S)-3-amino-5-(fluoromethyl)-1-(4-methyl-1,3-oxazol-5-yl)-2-thia-4-azabicyclo[4.1.0]hept-3-en-5-yl)-4-fluorophenyl)-5-chloro-2-pyridinecarboxamide] are 1230 µM, < 0.00203 µM, 0.000847 µM and 0.0139 µM.
On to `COc1cnc2c(Nc3cc(F)c(F)c([C@@]4(C)N=C(N)S[C@@]5(CF)C[C@H]54)c3)ncnc2c1` [Example 64, (1S,5S,6S)-5-(2,3-difluoro-5-((7-methoxypyrido[3,2-d]pyrimidin-4-yl)amino)phenyl)-1-(fluoromethyl)-5-methyl-2-thia-4-azabicyclo[4.1.0]hept-3-en-3-amine], for which the IC50 on Recombinant Cat D (Cathepsin D FRET enzyme assay) amounted to 268 µM; at human recombinant BACE2 (BACE2 FRET enzyme assay) it was 0.025 µM; at human recombinant BACE1 (BACE1 FRET enzyme assay) it was 0.00448 µM; in assay [1] (BACE1 cell-based assay), 0.00281 µM.
Regarding `CC(F)(F)COc1cnc2c(Nc3cc(F)c(F)c([C@@]4(C)N=C(N)S[C@@]5(C(F)F)C[C@@H]45)c3)nccc2n1` [Example 872, N-(3-((1S,5S,6S)-3-amino-1-(difluoromethyl)-5-methyl-2-thia-4-azabicyclo[4.1.0]hept-3-en-5-yl)-4,5-difluorophenyl)-2-(2,2-difluoropropoxy)pyrido[3,4-b]pyrazin-5-amine], the IC50 on Recombinant Cat D was 239 µM; at human recombinant BACE2 it was 0.441 µM; on human recombinant BACE1 it was 0.0193 µM; in assay [1], 2.66 µM.

The values above are taken from patent US20160046618A1, “Cyclopropyl Fused Thiazin-2-Amine Compounds as Beta-Secretase Inhibitors and Methods of Use” (AMGEN INC., priority 2014, published 2016).
